Numbers after ± are expanded uncertainties.
Experiments:
[1] = for mass density / viscosity / thermal conductivity: 101.33 kPa, Liquid; for mass density: Vibrating tube method; for thermal conductivity: Hot wire method; for Glass transition temperature: DTA
[2] = molar heat capacity at constant pressure; details: 101.33 kPa, Liquid, Large sample (1 g) DSC

Structure (SMILES)	mass density ([1]; 293.15 K) [kg/m3]	viscosity ([1]; 298.15 K) [mPa·s]	mass density ([1]; 298.15 K) [kg/m3]	viscosity ([1]; 303.15 K) [mPa·s]	mass density ([1]; 303.15 K) [kg/m3]	viscosity ([1]; 313.15 K) [mPa·s]	mass density ([1]; 313.15 K) [kg/m3]	viscosity ([1]; 323.15 K) [mPa·s]	mass density ([1]; 323.15 K) [kg/m3]	viscosity ([1]; 333.15 K) [mPa·s]	mass density ([1]; 333.15 K) [kg/m3]	viscosity ([1]; 343.15 K) [mPa·s]	mass density ([1]; 343.15 K) [kg/m3]	viscosity ([1]; 353.15 K) [mPa·s]	mass density ([1]; 353.15 K) [kg/m3]	viscosity ([1]; 363.15 K) [mPa·s]	mass density ([1]; 363.15 K) [kg/m3]	Glass transition temperature [1] [°C]	molar heat capacity at constant pressure ([2]; 293.15 K) [J/K/mol]	molar heat capacity at constant pressure ([2]; 298.15 K) [J/K/mol]	further results
CCCC[P+](CCCC)(CCCC)CCCC.NCCCC[C@H](N)C(=O)[O-] [tetrabutylphosphonium L-lysinate]	970.5 ± 5.1	741 ± 140	967.5 ± 5.1	519.8 ± 83	964.4 ± 5	268.7 ± 31	958.4 ± 5	149.7 ± 12	952.3 ± 4.9	90.4 ± 4.3	946.2 ± 4.9	59.8 ± 1.7	940.3 ± 4.8	39.7 ± 1.2	934.4 ± 4.7	27.5 ± 0.8	928.6 ± 4.7	-66.7 ± 4	987.3 ± 100	997.4 ± 100	thermal conductivity ([1]; 298.15 K): 0.163 ± 0.01 W/m/K; thermal conductivity ([1]; 303.15 K): 0.163 ± 0.01 W/m/K; thermal conductivity ([1]; 313.15 K): 0.162 ± 0.01 W/m/K; thermal conductivity ([1]; 323.15 K): 0.161 ± 0.01 W/m/K; thermal conductivity ([1]; 333.15 K): 0.16 ± 0.01 W/m/K; thermal conductivity ([1]; 343.15 K): 0.159 ± 0.01 W/m/K; thermal conductivity ([1]; 353.15 K): 0.158 ± 0.01 W/m/K; molar heat capacity at constant pressure ([2]; 303.15 K): 1004.3 ± 100 J/K/mol; molar heat capacity at constant pressure ([2]; 313.15 K): 1021.3 ± 100 J/K/mol; molar heat capacity at constant pressure ([2]; 323.15 K): 1040.3 ± 110 J/K/mol; molar heat capacity at constant pressure ([2]; 333.15 K): 1060.1 ± 110 J/K/mol; molar heat capacity at constant pressure ([2]; 343.15 K): 1077.9 ± 110 J/K/mol; molar heat capacity at constant pressure ([2]; 353.15 K): 1096.5 ± 110 J/K/mol; molar heat capacity at constant pressure ([2]; 363.15 K): 1111.5 ± 110 J/K/mol
CCCC[P+](CCCC)(CCCC)CCCC.NCCS(=O)(=O)[O-] [tetrabutylphosphonium 2-aminoethanesulfonate]	1030.1 ± 5.7	1019 ± 210	1026.8 ± 5.7	712.6 ± 130	1023.7 ± 5.7	345.5 ± 46	1017.6 ± 5.6	186.2 ± 17	1011.5 ± 5.5	106.7 ± 6.2	1005.3 ± 5.5	67.5 ± 2.2	999.2 ± 5.4	44.2 ± 1.3	993.3 ± 5.3	29.6 ± 0.9	987.3 ± 5.3	-58.14 ± 4	987.7 ± 100	994.6 ± 100	molar heat capacity at constant pressure ([2]; 303.15 K): 1001.6 ± 100 J/K/mol; molar heat capacity at constant pressure ([2]; 313.15 K): 1015 ± 100 J/K/mol; molar heat capacity at constant pressure ([2]; 323.15 K): 1028.4 ± 100 J/K/mol; molar heat capacity at constant pressure ([2]; 333.15 K): 1042.6 ± 110 J/K/mol; molar heat capacity at constant pressure ([2]; 343.15 K): 1057.6 ± 110 J/K/mol; molar heat capacity at constant pressure ([2]; 353.15 K): 1073.7 ± 110 J/K/mol; molar heat capacity at constant pressure ([2]; 363.15 K): 1088.6 ± 110 J/K/mol
CCCC[P+](CCCC)(CCCC)CCCC.C[C@@H](O)[C@H](N)C(=O)[O-] [tetrabutylphosphonium L-threoninate]	983 ± 5.2	739 ± 140	979.9 ± 5.2	519.8 ± 83	976.9 ± 5.2	260.1 ± 30	970.7 ± 5.1	143.2 ± 11	964.6 ± 5	88.5 ± 4.1	958.5 ± 5	53.9 ± 1.4	952.5 ± 4.9	36.2 ± 1.1	946.6 ± 4.9	25.1 ± 0.8	940.7 ± 4.8	-60.72 ± 4	952.2 ± 96	961.3 ± 97	thermal conductivity ([1]; 298.15 K): 0.156 ± 0.01 W/m/K; thermal conductivity ([1]; 303.15 K): 0.155 ± 0.01 W/m/K; thermal conductivity ([1]; 313.15 K): 0.154 ± 0.01 W/m/K; thermal conductivity ([1]; 323.15 K): 0.153 ± 0.01 W/m/K; thermal conductivity ([1]; 333.15 K): 0.152 ± 0.01 W/m/K; thermal conductivity ([1]; 343.15 K): 0.152 ± 0.01 W/m/K; thermal conductivity ([1]; 353.15 K): 0.151 ± 0.01 W/m/K; molar heat capacity at constant pressure ([2]; 303.15 K): 970.7 ± 98 J/K/mol; molar heat capacity at constant pressure ([2]; 313.15 K): 991.5 ± 100 J/K/mol; molar heat capacity at constant pressure ([2]; 323.15 K): 1012.6 ± 100 J/K/mol; molar heat capacity at constant pressure ([2]; 333.15 K): 1033.4 ± 100 J/K/mol; molar heat capacity at constant pressure ([2]; 343.15 K): 1055.7 ± 110 J/K/mol; molar heat capacity at constant pressure ([2]; 353.15 K): 1076.4 ± 110 J/K/mol; molar heat capacity at constant pressure ([2]; 363.15 K): 1097.2 ± 110 J/K/mol
